The record followed here is patent US10364256B2 (GlaxoSmithKline Intellectual Property Development Limited, priority 2015, dated 2019).

Experiment [1] has as its target T1, Keap1 Kelch domain (321-609) / TAMRA-labeled 16mer NRF2 peptide (ETGE motif) (Homo sapiens, UniProt Q14145).
T1 construct: the Kelch domain (321-609) of Keap1 is used
Description: NRF2-Keap1 FP Assay (Keap1 Kelch fluorescence polarization). Format: binding. To be noted: 20 nM Keap1 (321-609), 8 nM Tamra labeled peptide. Put shortly: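 Compound dilutions (3-fold) were incubated 1 hr at room temperature with 20 nM Keap1 Kelch (321-609) and 8 nM TAMRA-labeled ETGE 16mer peptide. Buffer was 50 mM Tris pH 8.0, 100 mM NaCl, 5 mM MgCl2, 1 mM DTT, 2 mM CHAPS, 0.005% BSA. Fluorescence polarization (mP) was normalized to controls and fitted with a four-parameter equation to give pIC50.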

The subject of experiment [2] is NQO1 specific enzyme activity in BEAS-2B cells (marker for NRF2 activation). As to the kind of experiment: BEAS-2B NQO1 MTT Assay. The class given is cell-based. As to conditions: Homo sapiens, compound incubated 48 hours, read-out: EC50 (NQO1 specific enzyme activity induction). In a few lines:
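NQO1 specific activity induction is derived from the rate of MTT reduction (ΔOD/min, 570 nm, 30 min kinetic read) in crude lysates of BEAS-2B cells exposed to compound for 48 h. A 3-parameter fit gives EC50, reported as pEC50; part of each lysate goes to Cell Titer Glo.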

Where two headings read alike, the source gives them in different places.

T1 sequence (Q14145 321-609): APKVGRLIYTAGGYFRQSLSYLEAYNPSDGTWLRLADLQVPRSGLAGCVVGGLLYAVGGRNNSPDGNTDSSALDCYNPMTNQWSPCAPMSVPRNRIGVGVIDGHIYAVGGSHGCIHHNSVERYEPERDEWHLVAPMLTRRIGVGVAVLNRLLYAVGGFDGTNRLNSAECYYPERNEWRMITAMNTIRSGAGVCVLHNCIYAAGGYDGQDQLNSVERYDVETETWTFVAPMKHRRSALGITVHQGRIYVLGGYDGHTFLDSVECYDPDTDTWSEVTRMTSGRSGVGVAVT

Compound `CC(Oc1cccc(-c2cccc(-n3ncc(C(=O)O)c3[C@H]3C[C@@H]3c3cn(C)nn3)c2)c1)c1ccc(-c2ccccc2)cc1` (mixture of isomers) [Example 240, 1-(3′-(1-([1,1′-Biphenyl]-4-yl)ethoxy)-[1,1′-biphenyl]-3-yl)-5-((1,2- trans)-2-(1-methyl-1H-1,2,3-triazol-4-yl)cyclopropyl)-1H-pyrazole-4-carboxylic acid] registered an IC50 in experiment [1] of 100 to 1000 nM. The half-maximal effective concentration (EC50) in experiment [2] was 100 to 1000 nM.

`Cn1cc([C@@H]2C[C@H]2c2c(C(=O)O)cnn2-c2cccc(-c3cccc(OCCC4CCCCC4)c3)c2)nn1` (racemic) [Example 245, 1-(3′-(2-cyclohexylethoxy)-[1,1′-biphenyl]-3-yl)-5-(trans-2-(1-methyl-1H-1,2,3-triazol-4-yl)cyclopropyl)-1H-pyrazole-4-carboxylic Acid]: the half-maximal inhibitory concentration (IC50) in experiment [1] fell in the range of 10 to 100 nM. Further, in experiment [2], the concentration for a half-maximal effect (EC50) fell in the range of 10 to 100 nM.

With `Cn1cc([C@@H]2C[C@H]2c2c(C(=O)O)cnn2-c2cccc(-c3cncc(OCC4CCCCC4)c3)c2)nn1` (racemic) [Example 246, 1-(3-(5-(Cyclohexylmethoxy)pyridin-3-yl)phenyl)-5-(trans-2-(1-methyl-1H-1,2,3-triazol-4-yl)cyclopropyl)-1H-pyrazole-4-carboxylic Acid], the 50% inhibitory concentration (IC50) in experiment [1] is 100 to 1000 nM. Besides, the EC50 in experiment [2] was 1000 to 10000 nM.

In experiment [1], `CCC[C@@H]1CCCCN1C(=O)c1cccc(-c2cc(C)cc(-n3ncc(C(=O)O)c3[C@@H]3C[C@H]3c3cn(C)nn3)c2)c1` (single isomer, unassigned) [Example 155] came in with a half-maximal inhibitory concentration (IC50) of 10 to 100 nM. In experiment [2] (BEAS-2B, 48 h), the EC50 was 100 to 1000 nM.

Take `CC(Oc1cccc(-c2cccc(-n3ncc(C(=O)O)c3[C@H]3C[C@@H]3c3cn(C)nn3)c2)c1)C1CCCCC1` (single isomer, unassigned) [Example 191]: the half-inhibitory concentration (IC50) in experiment [1] was 100 to 1000 nM. For the same compound, the concentration giving a half-maximal response (EC50) in experiment [2] (BEAS-2B, 48 h) is 100 to 1000 nM.

With `Cn1cc([C@H]2C[C@@H]2c2c(C(=O)O)cnn2-c2cccc(-c3cccc(-n4ncc5c4C(C)(C)CC5)c3)c2)nn1` (stereo in doubt) [Example 208, 1-(3′-(6,6-Dimethyl-5,6-dihydrocyclopenta[c]pyrazol-1(4H)-yl)-[1,1′-biphenyl]-3-yl)-5-((1S,2S)-2-(1-methyl-1H-1,2,3-triazol-4-yl)cyclopropyl)-1H-pyrazole-4-carboxylic Acid], in experiment [1], the IC50 was 10 to 100 nM. Further, in experiment [2], the EC50 lay within 10 to 100 nM.

In turn, `O=C(O)c1cnn(-c2cccc(-c3cccc(C(=O)N(CC4CCCC4)CC4CC4)c3F)c2)c1C1CC1` [Example 14, 1-(3-{3-[(Cyclopentylmethyl)(cyclopropylmethyl)carbamoyl]-2-fluorophenyl}phenyl)-5-cyclopropyl-1H-pyrazole-4-carboxylic Acid] showed a concentration for half-maximal inhibition (IC50) in experiment [1] of 10 to 100 nM. Further, the EC50 in experiment [2] lay within 100 to 1000 nM.

`CCCC1CCCCN1C(=O)c1cccc(-c2cccc(-n3ncc(C(=O)O)c3C3CC3)c2)c1F` (centres unmarked) [Example 17, 5-Cyclopropyl-1-{3-[2-fluoro-3-(2-propylpiperidine-1-carbonyl)phenyl]phenyl}-1H-pyrazole-4-carboxylic Acid] displayed an IC50 in experiment [1] of 10 to 100 nM. Moreover, the 50% effective concentration (EC50) in experiment [2] lay within 100 to 1000 nM.

In experiment [1], `C[C@@H]1CCC[C@H](C)N1C(=O)c1cccc(-c2cccc(-n3ncc(C(=O)O)c3C3CC3)c2)c1F` [Example 21, 5-Cyclopropyl-1-(3-{3-[(2R,6S)-2,6-dimethylpiperidine-1-carbonyl]-2-fluorophenyl}phenyl)-1H-pyrazole-4-carboxylic Acid] had an IC50 of 10 to 100 nM. In addition, the EC50 in experiment [2] fell in the range of 100 to 1000 nM.

In the case of `CCCC1CCCCN1C(=O)c1cccc(-c2cccc(-n3ncc(C(=O)O)c3C3CC3c3cccnn3)c2)c1` (centres unmarked) [Example 41, 1-[3′-(2-Propyl-piperidine-1-carbonyl)-biphenyl-3-yl]-5-(2-pyridazin-3-yl-cyclopropyl)-1H-pyrazole-4-carboxylic Acid], the half-inhibitory concentration (IC50) in experiment [1] lay within 10 to 100 nM. The half-maximal effective concentration (EC50) in experiment [2] (BEAS-2B, 48 h) fell in the range of 1000 to 10000 nM.
